From ChEMBL document CHEMBL5344416, “Phenothiazines as anti-cancer agents: SAR overview and synthetic strategies” (Eur J Med Chem, 2023) come the findings set out here.

Common to all, as to format: functional, cell-based
For experiment [1], the system named is SNB-19. As to the kind of experiment: Anticancer activity against human SNB-19 cells assessed as reduction in cell proliferation incubated for 72 hrs by WST-1 assay. The following applies: SNB-19, 72 h.
The test system of experiment [2] is Caco-2. As to the kind of experiment: Cytotoxicity against human Caco-2 cells assessed as reduction in cell proliferation incubated for 72 hrs by WST-1 assay. The following applies: Caco-2, 72 h.
For experiment [3], the system named is A549. As to the kind of experiment: Antiproliferative activity against human A549 cells assessed as reduction in cell viability incubated for 72 hrs by WST-1 assay. The following applies: A549, 72 h.
In experiment [4] the test system is MDA-MB-231. Description: Antiproliferative activity against human MDA-MB-231 cells assessed as reduction in cell viability incubated for 72 hrs by WST-1 assay. The following applies: MDA-MB-231, 72 h.
The subject of experiment [5] is NHDF. As to the kind of experiment: Cytotoxicity against human NHDF cells assessed as reduction in cell viability incubated for 72 hrs by WST-1 assay.

The structures appear in SMILES notation. A value given as a limit tells only on which side of the number the result lay.

Consider `Clc1ccc(Cn2cc(CN3c4cccnc4Sc4cccnc43)nn2)cc1`, for which the IC50 in experiment [1] was 4660 nM; in experiment [2] it was 250 nM; in experiment [3], 250 nM; in experiment [4], 510 nM; in experiment [5], more than 100000 nM.
